Test: DPPH (2,2-diphenyl-1-picrylhydrazyl) radical scavenging antioxidant test in vitro
Assay type: biochemical
Conditions: 517 nm; for Inhibition (radical scavenging inhibition): 0.2 mL DPPH (0.75 mM), compound 3 μM in ethanol, 30 min incubation in the dark
Experimental: The antioxidant properties of the 8-(3-chlorobenzylideneamino)naphthalene-1,3-disulfonic acid were studied by adding 0.2 mL DPPH (0.75 mM)) to compound 8-(3-chlorobenzylideneamino)naphthalene-1,3-disulfonic acid (III) (3 μM) in ethanol. After 30 min of incubation in the dark, the absorbance was read against a blank at 517 nm. Ascorbic acid (vitamin C) was used as standard antioxidants (positive control). A blank sample was prepared by 0.2 ml of DPPH in 3 ml ethanol. A negative control sample was run using ethanol instead of the sample. The radical scavenging inhibition was calculated using the following equation: […]
The antioxidant activity for the synthesized compound is listed in Table 1, using Vitamin C as a reference.

O=S(=O)(O)c1cc(S(=O)(=O)O)c2c(/N=C/c3cccc(Cl)c3)cccc2c1 [Product III, 8-(3-chlorobenzylideneamino)naphthalene-1,3-disulfonic acid]
Inhibition (radical scavenging inhibition): 50% | antioxidant potential in DPPH test, in words (DPPH in vitro test, vitamin C as positive control): high potential as an antioxidant compared to vitamin C

O=C1O[C@H]([C@@H](O)CO)C(O)=C1O [vit c, Ascorbic acid, reference compound]
Inhibition (radical scavenging inhibition): 74%

From patent publication US11970440B1, “8-(3-chlorobenzylideneamino)naphthalene-1,3-disulfonic acid as an antioxidant compound” (KING FAISAL UNIVERSITY, priority 2023, dated 2024)
